The record followed here is ChEMBL document CHEMBL1143473, “Synthesis and evaluation of 18F-labeled dopamine D3 receptor ligands as potential PET imaging agents” (Bioorg Med Chem Lett, 2005).

A short description of assay [1]: Binding affinity towards 5-HT2 receptor using porcine cortical membrane and [3H]ketanserin as radioligand. Also on record: species or system Sus scrofa.
The target in assay [2] is T1, D(2) dopamine receptor (Homo sapiens, UniProt P14416). Description: biochemical.
Description: Binding affinity towards Dopamine D2L receptor using CHO cell line and [3H]spiperone as radioligand
The target of assay [3] is D(1A) dopamine receptor (Sus scrofa, UniProt P50130). As to the kind of experiment: Binding affinity towards Dopamine receptor D1 using porcine striatal membrane and [3H]-SCH- 23390 as radioligand. Also on record: species or system Striatum.
Chain of D(1A) dopamine receptor (P50130 whole entry): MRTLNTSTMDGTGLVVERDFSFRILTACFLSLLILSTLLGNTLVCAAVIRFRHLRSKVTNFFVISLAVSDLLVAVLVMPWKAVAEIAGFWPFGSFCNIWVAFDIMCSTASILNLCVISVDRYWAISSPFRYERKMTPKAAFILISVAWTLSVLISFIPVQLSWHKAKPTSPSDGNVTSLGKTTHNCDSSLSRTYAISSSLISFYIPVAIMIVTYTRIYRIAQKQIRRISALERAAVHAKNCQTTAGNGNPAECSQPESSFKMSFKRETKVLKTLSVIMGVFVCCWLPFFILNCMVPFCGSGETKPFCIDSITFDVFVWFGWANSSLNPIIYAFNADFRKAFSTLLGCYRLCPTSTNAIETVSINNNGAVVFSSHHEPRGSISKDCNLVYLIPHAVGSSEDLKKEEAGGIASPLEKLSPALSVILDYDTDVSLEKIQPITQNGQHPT
The target of assay [4] is T1, D(2) dopamine receptor. Description: biochemical. This is another data set of the same source.
Description: Binding affinity towards Dopamine D2S receptor using CHO cell line and [3H]spiperone as radioligand
Assay [5] has as its target T2, D(4) dopamine receptor (Homo sapiens, UniProt P21917).
T2 sequence (P21917 whole entry): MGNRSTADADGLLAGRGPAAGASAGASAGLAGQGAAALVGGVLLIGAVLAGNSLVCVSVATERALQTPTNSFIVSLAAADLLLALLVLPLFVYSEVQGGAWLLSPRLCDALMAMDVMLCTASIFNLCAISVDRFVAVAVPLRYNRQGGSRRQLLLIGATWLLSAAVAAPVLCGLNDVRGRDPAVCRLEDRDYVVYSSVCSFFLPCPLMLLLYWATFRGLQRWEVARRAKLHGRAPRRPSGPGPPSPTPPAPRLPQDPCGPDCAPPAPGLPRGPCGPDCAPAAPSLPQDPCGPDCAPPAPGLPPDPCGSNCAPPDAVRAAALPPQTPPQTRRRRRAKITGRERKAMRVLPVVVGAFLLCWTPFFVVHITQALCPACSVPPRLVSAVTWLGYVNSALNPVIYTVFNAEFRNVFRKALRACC
As to the kind of experiment: biochemical.
Description: Binding affinity towards Dopamine receptor D 4.4 using CHO cell line and [3H]spiperone as radioligand

Assay [6] has as its target D(3) dopamine receptor (Homo sapiens, UniProt P35462). As to the kind of experiment: biochemical.
Description: Binding affinity towards Dopamine receptor D3 using CHO cell line and [3H]-spiperone as radioligand

Chain of D(3) dopamine receptor (P35462 whole entry): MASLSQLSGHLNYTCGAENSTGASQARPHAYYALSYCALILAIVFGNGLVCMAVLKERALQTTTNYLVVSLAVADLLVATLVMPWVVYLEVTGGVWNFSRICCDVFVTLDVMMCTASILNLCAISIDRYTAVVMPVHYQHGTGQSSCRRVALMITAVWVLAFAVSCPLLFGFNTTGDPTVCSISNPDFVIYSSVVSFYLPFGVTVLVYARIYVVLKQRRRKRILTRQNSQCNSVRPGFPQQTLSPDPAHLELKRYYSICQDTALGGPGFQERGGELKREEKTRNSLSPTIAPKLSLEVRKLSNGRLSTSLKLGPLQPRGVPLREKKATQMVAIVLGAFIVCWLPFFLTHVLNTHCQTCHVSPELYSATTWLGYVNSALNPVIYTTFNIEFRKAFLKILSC
T1 sequence (P14416 whole entry): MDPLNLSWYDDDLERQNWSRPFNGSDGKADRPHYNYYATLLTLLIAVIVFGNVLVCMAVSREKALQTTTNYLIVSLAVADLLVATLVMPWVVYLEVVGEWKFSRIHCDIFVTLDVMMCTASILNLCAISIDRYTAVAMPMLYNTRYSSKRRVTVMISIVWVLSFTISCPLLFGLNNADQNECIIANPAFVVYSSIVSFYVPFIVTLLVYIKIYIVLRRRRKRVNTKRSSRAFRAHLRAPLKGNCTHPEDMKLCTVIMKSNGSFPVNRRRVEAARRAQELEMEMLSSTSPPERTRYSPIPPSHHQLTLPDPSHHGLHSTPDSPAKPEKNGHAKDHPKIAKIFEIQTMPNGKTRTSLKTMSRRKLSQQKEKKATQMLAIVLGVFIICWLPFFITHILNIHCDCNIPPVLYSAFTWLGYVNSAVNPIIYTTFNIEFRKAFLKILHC

For `COc1ccccc1N1CCN(CCCCNC(=O)c2ccc(F)cc2)CC1`, the affinity in assay [1] corresponds to a Ki of 2300 nM.
For the compound `COc1ccccc1N1CCN(CCCCNS(=O)(=O)c2ccc(F)cc2)CC1`, the Ki (commonly a dissociation constant, usually derived from enzyme kinetics or from competition with a known ligand) in assay [2] amounted to 72 nM; in assay [3] it was 3500 nM; in assay [4], 120 nM; in assay [5], 9.9 nM; in assay [6], 210 nM.
Consider `O=S(=O)(NCCCCN1CCN(c2cccc(Cl)c2Cl)CC1)c1ccc(F)cc1`, for which the Ki in assay [2] turned out to be 39 nM; in assay [1], 830 nM; in assay [3], 1800 nM; in assay [4], 49 nM; in assay [5] it was 17 nM; in assay [6] it was 16 nM.
Turning to `O=C(NCCCCN1CCN(c2cccc(Cl)c2Cl)CC1)c1ccc(F)cc1`, the inhibition constant (Ki) came out at 230 nM in assay [1]; 920 nM in assay [3]; 18 nM in assay [4]; 44 nM in assay [5]; 0.53 nM in assay [6].
Consider `O=C(NCCCCN1CCN(c2cccc(Cl)c2Cl)CC1)c1ccc(F)nc1`, for which the inhibitory constant (Ki) in assay [2] stood at 21 nM; in assay [1] it was 84 nM; in assay [3] it was 1300 nM; in assay [4], 29 nM; in assay [5] it was 100 nM; in assay [6], 1.1 nM.
As for `O=C(NCCCCN1CCN(c2cccc(Cl)c2Cl)CC1)c1cccc(F)n1`, the inhibition constant (Ki) in assay [2] was found to be 44 nM; in assay [1], 240 nM; in assay [3], 910 nM; in assay [4], 57 nM; in assay [5], 97 nM; in assay [6], 9 nM.
`COc1ccccc1N1CCN(CCCCNC(=O)c2cccc(F)n2)CC1`: the Ki in assay [2] came to 260 nM; in assay [1], 3200 nM; in assay [3] it was 4100 nM; in assay [4], 400 nM; in assay [5], 76 nM; in assay [6], 86 nM.
In the case of `COc1ccccc1N1CCN(CCCCNC(=O)c2ccc(F)nc2)CC1`, the Ki stood at 160 nM in assay [2]; 3700 nM in assay [1]; 6300 nM in assay [3]; 240 nM in assay [4]; 130 nM in assay [5]; 14 nM in assay [6].
In assay [1], `O=C(NCCCCN1CCN(c2cccc(Cl)c2Cl)CC1)c1cc2ccccc2s1` returned a Ki of 3000 nM.
